Source: patent US9108921B2, “Therapeutic compounds and compositions” (AGIOS PHARMACEUTICALS, INC, priority 2014, dated 2015)

Experiments:
PKR WT [1] = molecular target: T1, PKR WT (Homo sapiens, UniProt P30613); experiment: PKR WT cell based AC50 assay; settings: wild type PKR
PKR WT [2] = molecular target: T1, PKR WT; experiment: PKR WT enzymatic AC50 assay; assay type: biochemical; settings: wild type PKR
Method: (§1) • PKR or PKR mutant enzyme solution was diluted in assay buffer. • 2 μL of test compound was added into wells first, and then 180 μL reaction mix was added. • Reactions mixture with test compound was assembled except for ADP, and plates were stored for 60 minutes at room temperature. • 20 uL ADP was added to start reaction at room temperature and reaction progress was measured as changes in absorbance at 340 nm wavelength at room temperature.
(§2) Test Compound Preparation: • Test compound stock was made at 100× concentration in 100% DMSO (10 mM) • 1 to 3 dilutions were made for 11 points (i.e. 50 μl of first concentration added to 100 μl 100% DMSO to yield 3.33 mM, 50 μl of this added to 100 μl DMSO to yield 1.11 mM, and so forth) • 1 to 100 dilution into assay (2 μl in 200 μl) yielded starting concentration of 100 μM, decreasing 3 fold for 11 points. Assay Buffer: 100 mM KCl, 50 mM Tris 7.5, 5 mM MgCl2, 1 mM DTT, 0.03% BSA Reaction Mixture: PKR mutant enzyme: 80-400 ng/well; ADP: 0.22-1.65 mM; PEP: 0.1-0.5 mM; NADH: 180 uM; LDH: 0.5 units (Sigma#59023); DTT: 1 mM; BSA: 0.03%.

PKR R532W = PKR R532W (Homo sapiens, UniProt P30613, R532W); experiment: PKR Mutant Assay, AC50 against PKR R532W; assay type: biochemical; settings: mutant PKR R532W enzyme
Method: as §1, §2

PKR R510Q = PKR R510Q (Homo sapiens, UniProt P30613, R510Q); experiment: PKR Mutant Assay, AC50 against PKR R510Q; assay type: biochemical; settings: mutant PKR R510Q enzyme
Method: as §1, §2

PKR R510Q, sequence (P30613 whole entry R510Q): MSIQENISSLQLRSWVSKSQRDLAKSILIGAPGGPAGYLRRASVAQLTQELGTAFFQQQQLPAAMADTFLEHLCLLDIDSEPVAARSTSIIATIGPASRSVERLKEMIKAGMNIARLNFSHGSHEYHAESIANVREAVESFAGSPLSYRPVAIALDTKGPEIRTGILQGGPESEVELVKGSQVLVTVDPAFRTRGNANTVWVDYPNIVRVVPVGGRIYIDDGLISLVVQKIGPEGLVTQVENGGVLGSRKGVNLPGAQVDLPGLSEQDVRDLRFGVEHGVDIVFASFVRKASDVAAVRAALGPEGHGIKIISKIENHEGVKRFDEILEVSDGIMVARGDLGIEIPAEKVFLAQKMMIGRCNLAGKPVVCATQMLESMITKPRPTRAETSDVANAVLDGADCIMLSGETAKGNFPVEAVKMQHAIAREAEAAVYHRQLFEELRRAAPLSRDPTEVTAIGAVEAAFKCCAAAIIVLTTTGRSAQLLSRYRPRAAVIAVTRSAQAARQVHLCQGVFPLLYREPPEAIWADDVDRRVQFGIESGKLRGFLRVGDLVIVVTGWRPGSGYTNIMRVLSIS
T1 sequence (P30613 whole entry): as the sequence (P30613 whole entry R510Q) above, with Q510R counted along it
PKR R532W, sequence (P30613 whole entry R532W): as the sequence (P30613 whole entry R510Q) above, with Q510R, R532W counted along it

| Structure (SMILES) | AC50 (PKR WT [1]) [nM] | AC50 (PKR WT [2]) [nM] | AC50 (PKR R532W) [nM] | AC50 (PKR R510Q) [nM] |
| --- | --- | --- | --- | --- |
| CC(C)CC1(C=O)CCN(C(=O)c2ccc(NS(=O)(=O)c3cccc4cccnc34)cc2)CC1 [Compound 137, N-(4-(4-formyl-4-isobutylpiperidine-1-carbonyl)phenyl)quinoline-8-sulfonamide] | < 100 | < 100 | < 100 | < 100 |
| O=C(c1ccc(NS(=O)(=O)c2cccc3cccnc23)cc1)N1CCC(CO)(Cc2ccccc2)CC1 [Compound 149, N-(4-(4-benzyl-4-(hydroxymethyl)piperidine-1-carbonyl)phenyl)quinoline-8-sulfonamide] | < 100 | < 100 | < 100 |  |
| CS(=O)(=O)c1cccc(C2(O)CCN(C(=O)c3ccc(NS(=O)(=O)c4cccc5cccnc45)cc3)CC2)c1 [Compound 182, N-(4-(4-hydroxy-4-(3-(methylsulfonyl)phenyl)piperidine-1-carbonyl)phenyl)quinoline-8-sulfonamide] | < 100 | < 100 |  | 1010 to 10000 |
| N#Cc1ccccc1C1(O)CCN(C(=O)c2ccc(NS(=O)(=O)c3cccc4cccnc34)cc2)CC1 [Compound 266, N-(4-(4-(2-cyanophenyl)-4-hydroxypiperidine-1-carbonyl)phenyl)quinoline-8-sulfonamide] |  | 101 to 1000 | 101 to 1000 | 1010 to 10000 |
| O=C(c1ccc(NS(=O)(=O)c2cccc3scnc23)cc1)N1CCC(O)(c2cn[nH]c2)CC1 [Compound 410, N-[4-[4-hydroxy-4-(1H-pyrazol-4-yl)piperidine-1-carbonyl]phenyl]benzothiazole-4-sulfonamide] |  | 101 to 1000 | 101 to 1000 | > 10000 |
| O=C(c1ccc(NS(=O)(=O)c2ccc(F)c3scnc23)cc1)N1CCC(O)(c2ccccc2Cl)CC1 [Compound 368] |  | 101 to 1000 | 101 to 1000 | 1010 to 10000 |
| O=C(c1ccc(NS(=O)(=O)c2ccc(F)c3cccnc23)cc1)N1CCC(O)(Cc2ccccc2F)CC1 [Compound 158, 5-fluoro-N-(4-(4-(2-fluorobenzyl)-4-hydroxypiperidine-1-carbonyl)phenyl)quinoline-8-sulfonamide] |  | < 100 | < 100 | < 100 |
| COc1nc(C(=O)N2CCC(O)(c3ccccc3)CC2)ccc1NS(=O)(=O)c1cccc2cccnc12 [Compound 304] |  | 1010 to 10000 | 1010 to 10000 | > 10000 |
| O=C(c1ccc(NS(=O)(=O)c2cccc3snnc23)cc1)N1CCC(O)(c2ccccc2Cl)CC1 [Compound 417] |  | 1010 to 10000 | 1010 to 10000 | > 10000 |
| O=C(c1ccc(NS(=O)(=O)c2cccc3cccnc23)cc1)N1CCC(O)(c2cccc(F)n2)CC1 [Compound 286] |  | 101 to 1000 | 101 to 1000 | 1010 to 10000 |
| O=C(c1ccc(NS(=O)(=O)c2ccc(F)c3scnc23)cc1)N1CCC(O)(c2ccccc2Cl)CC1 [Compound 378, N-(4-(4-(2-chlorophenyl)-4-hydroxypiperidine-1-carbonyl)phenyl)-7-fluorobenzo[d]thiazole-4-sulfonamide] |  | 101 to 1000 | 101 to 1000 | 1010 to 10000 |
| O=C(c1ccc(NS(=O)(=O)c2cccc3ncccc23)cc1)N1CCC(O)(c2ccccc2)CC1 [Compound 300] |  | 1010 to 10000 | 1010 to 10000 | > 10000 |
| O=C(c1ccc(NS(=O)(=O)c2cccc3ocnc23)cc1)N1CCC(O)(c2ccccc2Cl)CC1 [Compound 381, N-(4-(4-(2-chlorophenyl)-4-hydroxypiperidine-1-carbonyl)phenyl)benzo[d]oxazole-4-sulfonamide] |  | < 100 | 101 to 1000 | 101 to 1000 |
| CC1(O)CCN(C(=O)c2ccc(NS(=O)(=O)c3cccc4cccnc34)cc2)CC1 [Compound 296] |  | 1010 to 10000 | 1010 to 10000 | > 10000 |
| CC(C)CC1(CO)CCN(C(=O)c2ccc(NS(=O)(=O)c3cccc4scnc34)cc2)CC1 [Compound 216, N-(4-(4-(hydroxymethyl)-4-isobutylpiperidine-1-carbonyl)phenyl)benzo[d]thiazole-4-sulfonamide] |  | < 100 | < 100 | 101 to 1000 |
| O=C(c1ccc(NS(=O)(=O)c2cccc3scnc23)cc1)N1CCC(O)(CC2CC2)CC1 [Compound 198, N-(4-(4-(cyclopropylmethyl)-4-hydroxypiperidine-1-carbonyl)phenyl)benzo[d]thiazole-4-sulfonamide] |  | < 100 | < 100 | 101 to 1000 |
| O=C(c1ccc(NS(=O)(=O)c2cccc3cccnc23)cc1)N1CCC(O)(CCO)CC1 [Compound 274] |  | 101 to 1000 | 101 to 1000 | 1010 to 10000 |

| Structure (SMILES) | AC50 (PKR WT [1]) [nM] | AC50 (PKR WT [2]) [nM] | AC50 (PKR R532W) [nM] | AC50 (PKR R510Q) [nM] |
| --- | --- | --- | --- | --- |
| O=C(c1ccc(NS(=O)(=O)c2cccc3cccnc23)cc1)N1CCC(O)(CCCO)CC1 [Compound 253, N-(4-(4-hydroxy-4-(3-hydroxypropyl)piperidine-1-carbonyl)phenyl)quinoline-8-sulfonamide] |  | 101 to 1000 | 101 to 1000 | 1010 to 10000 |
| COc1cccnc1C1(O)CCN(C(=O)c2ccc(NS(=O)(=O)c3cccc4cccnc34)cc2)CC1 [Compound 285] |  | 101 to 1000 | 101 to 1000 | > 10000 |
| O=C(c1ccc(NS(=O)(=O)c2cccc3nccnc23)cc1)N1CCC(O)(CCC(F)(F)F)CC1 [Compound 221, N-(4-(4-hydroxy-4-(3,3,3-trifluoropropyl)piperidine-1-carbonyl)phenyl)quinoxaline-5-sulfonamide] |  | < 100 | < 100 | 101 to 1000 |
| O=C(c1ccc(NS(=O)(=O)c2cccc3nc(F)ccc23)cc1)N1CCC(O)(c2ccccc2Cl)CC1 [Compound 259, N-(4-(4-(2-chlorophenyl)-4-hydroxypiperidine-1-carbonyl)phenyl)-2-fluoroquinoline-5-sulfonamide] |  | 101 to 1000 | 101 to 1000 | 1010 to 10000 |
| C=C(C)CC1(O)CCN(C(=O)c2ccc(NS(=O)(=O)c3cccc4scnc34)cc2)CC1 [Compound 181, N-(4-(4-hydroxy-4-(2-methylallyl)piperidine-1-carbonyl)phenyl)benzo[d]thiazole-4-sulfonamide] |  | < 100 | < 100 | 101 to 1000 |
| Cc1cccc(C2(O)CCN(C(=O)c3ccc(NS(=O)(=O)c4cccc5cccnc45)cc3)CC2)n1 [Compound 265, N-[4-[4-hydroxy-4-(6-methylpyridin-2-yl)piperidine-1-carbonyl]phenyl]quinoline-8-sulfonamide] |  | 101 to 1000 | 101 to 1000 | 1010 to 10000 |
| O=C(c1ccc(NS(=O)(=O)c2c(F)ccc3ncsc23)cc1)N1CCC(O)(c2ccccc2Cl)CC1 [Compound 303] |  | 1010 to 10000 | 1010 to 10000 | > 10000 |
| CC(C)CC1(O)CCN(C(=O)c2ccc(NS(=O)(=O)c3ccc(F)c4scnc34)cc2)CC1 [Compound 372] |  | 101 to 1000 | 101 to 1000 | 101 to 1000 |
| COc1cccc(C2(O)CCN(C(=O)c3ccc(NS(=O)(=O)c4cccc5cccnc45)cc3)CC2)c1 [Compound 276] |  | 101 to 1000 | 101 to 1000 | 1010 to 10000 |
| O=C(c1ccc(NS(=O)(=O)c2cccc3scnc23)cc1)N1CCC(O)(CCC(F)F)CC1 [Compound 235, N-(4-(4-(3,3-difluoropropyl)-4-hydroxypiperidine-1-carbonyl)phenyl)benzo[d]thiazole-4-sulfonamide] |  | 101 to 1000 | 101 to 1000 | 101 to 1000 |
| O=C(c1cc(F)c(NS(=O)(=O)c2cccc3cccnc23)cc1F)N1CCC(O)(c2ccccc2)CC1 [Compound 290] |  | 101 to 1000 | 101 to 1000 | 1010 to 10000 |
| CC(C)CC1(O)CCN(C(=O)c2ccc(NS(=O)(=O)c3cccc4[nH]c(=O)cnc34)cc2)CC1 [Compound 438] |  | 1010 to 10000 | 1010 to 10000 | 1010 to 10000 |
| CC(C)CC1(O)CCN(C(=O)c2ccc(NS(=O)(=O)c3cccc4csnc34)cc2)CC1 [Compound 257] |  | 101 to 1000 | 101 to 1000 | 1010 to 10000 |
| O=C(c1ccc(NS(=O)(=O)c2cccc3c2OC(F)(F)O3)cc1)N1CCC(O)(c2ccccc2Cl)CC1 [Compound 308] |  | 1010 to 10000 | 1010 to 10000 | > 10000 |
| N#Cc1ccc(C2(O)CCN(C(=O)c3ccc(NS(=O)(=O)c4cccc5cccnc45)cc3)CC2)cc1 [Compound 255, N-[4-[4-(4-cyanophenyl)-4-hydroxy-piperidine-1-carbonyl]phenyl]quinoline-8-sulfonamide] |  | 101 to 1000 | 101 to 1000 | 1010 to 10000 |
| O=C(c1ccc(NS(=O)(=O)c2cccc3scnc23)cc1)N1CCC(O)(CCC(F)(F)F)CC1 [Compound 233, N-(4-(4-hydroxy-4-(3,3,3-trifluoropropyl)piperidine-1-carbonyl)phenyl)benzo[d]thiazole-4-sulfonamide] |  | 101 to 1000 | 101 to 1000 | 101 to 1000 |
